The record followed here is ChEMBL document CHEMBL4602709 (ACS Med Chem Lett, 2020).

Experiment [1] concerns the target T1, Discoidin domain-containing receptor 2 (Homo sapiens) (UniProt Q16832).
T1 sequence (whole entry): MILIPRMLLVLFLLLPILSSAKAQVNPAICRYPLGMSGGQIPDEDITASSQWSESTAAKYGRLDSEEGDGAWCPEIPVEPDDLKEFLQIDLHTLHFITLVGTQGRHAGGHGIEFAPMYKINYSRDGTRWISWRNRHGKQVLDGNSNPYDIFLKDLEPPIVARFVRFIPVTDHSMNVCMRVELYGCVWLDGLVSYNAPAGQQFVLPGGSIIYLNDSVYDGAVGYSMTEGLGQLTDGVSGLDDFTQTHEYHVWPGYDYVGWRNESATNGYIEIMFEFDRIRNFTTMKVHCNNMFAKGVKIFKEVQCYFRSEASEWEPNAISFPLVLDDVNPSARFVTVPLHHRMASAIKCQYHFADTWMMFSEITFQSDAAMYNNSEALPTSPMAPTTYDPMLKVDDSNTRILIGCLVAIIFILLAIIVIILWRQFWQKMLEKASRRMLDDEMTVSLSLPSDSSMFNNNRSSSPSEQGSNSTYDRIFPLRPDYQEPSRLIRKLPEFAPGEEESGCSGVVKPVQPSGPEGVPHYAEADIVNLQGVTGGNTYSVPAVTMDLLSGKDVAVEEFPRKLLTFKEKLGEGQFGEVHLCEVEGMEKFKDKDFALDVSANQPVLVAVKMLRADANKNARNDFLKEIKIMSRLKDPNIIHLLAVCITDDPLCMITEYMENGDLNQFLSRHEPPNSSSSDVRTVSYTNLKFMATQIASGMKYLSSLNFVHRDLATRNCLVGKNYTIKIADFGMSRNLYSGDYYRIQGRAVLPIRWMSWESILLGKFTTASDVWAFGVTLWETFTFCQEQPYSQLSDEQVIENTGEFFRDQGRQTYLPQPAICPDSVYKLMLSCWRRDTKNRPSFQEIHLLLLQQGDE
Nature of the experiment: Inhibition of DDR2 (unknown origin) assessed as residual activity at 10 uM incubated for 5 mins in presence of [gamma-33ATP] by scintillation counting based radiometry assay relative to control.

The target in experiment [2] is T2, Mitogen-activated protein kinase kinase kinase kinase 3 (Homo sapiens) (UniProt Q8IVH8).
T2 sequence (whole entry): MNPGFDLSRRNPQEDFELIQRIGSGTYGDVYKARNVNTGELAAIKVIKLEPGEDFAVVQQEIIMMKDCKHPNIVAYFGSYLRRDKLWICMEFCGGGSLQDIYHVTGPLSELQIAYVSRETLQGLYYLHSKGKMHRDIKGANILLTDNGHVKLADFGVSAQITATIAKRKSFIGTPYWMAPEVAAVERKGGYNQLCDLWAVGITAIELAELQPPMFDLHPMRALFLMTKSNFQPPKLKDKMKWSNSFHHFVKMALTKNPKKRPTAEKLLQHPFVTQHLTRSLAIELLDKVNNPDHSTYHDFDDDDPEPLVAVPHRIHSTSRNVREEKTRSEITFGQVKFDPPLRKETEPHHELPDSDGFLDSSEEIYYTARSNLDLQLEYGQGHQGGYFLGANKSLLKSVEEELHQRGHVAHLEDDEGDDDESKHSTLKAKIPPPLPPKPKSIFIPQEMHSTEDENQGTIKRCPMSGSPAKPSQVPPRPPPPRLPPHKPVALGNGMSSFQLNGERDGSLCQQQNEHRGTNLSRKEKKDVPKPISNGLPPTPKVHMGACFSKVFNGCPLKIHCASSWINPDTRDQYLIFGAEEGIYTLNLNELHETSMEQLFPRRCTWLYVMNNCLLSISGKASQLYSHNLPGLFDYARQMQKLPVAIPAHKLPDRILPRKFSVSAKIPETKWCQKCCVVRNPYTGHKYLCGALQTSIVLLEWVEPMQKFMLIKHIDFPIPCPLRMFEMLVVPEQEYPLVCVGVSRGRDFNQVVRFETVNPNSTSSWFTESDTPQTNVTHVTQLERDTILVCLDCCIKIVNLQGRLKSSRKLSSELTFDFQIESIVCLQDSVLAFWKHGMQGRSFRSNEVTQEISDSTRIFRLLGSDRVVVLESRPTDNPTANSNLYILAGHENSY
Nature of the experiment: Inhibition of MAP4K3 (unknown origin) assessed as residual activity at 10 uM incubated for 5 mins in presence of [gamma-33ATP] by scintillation counting based radiometry assay relative to control.

Experiment [3] deals with T3, Ephrin type-B receptor 2 (Homo sapiens, UniProt P29323).
T3 sequence (P29323 whole entry): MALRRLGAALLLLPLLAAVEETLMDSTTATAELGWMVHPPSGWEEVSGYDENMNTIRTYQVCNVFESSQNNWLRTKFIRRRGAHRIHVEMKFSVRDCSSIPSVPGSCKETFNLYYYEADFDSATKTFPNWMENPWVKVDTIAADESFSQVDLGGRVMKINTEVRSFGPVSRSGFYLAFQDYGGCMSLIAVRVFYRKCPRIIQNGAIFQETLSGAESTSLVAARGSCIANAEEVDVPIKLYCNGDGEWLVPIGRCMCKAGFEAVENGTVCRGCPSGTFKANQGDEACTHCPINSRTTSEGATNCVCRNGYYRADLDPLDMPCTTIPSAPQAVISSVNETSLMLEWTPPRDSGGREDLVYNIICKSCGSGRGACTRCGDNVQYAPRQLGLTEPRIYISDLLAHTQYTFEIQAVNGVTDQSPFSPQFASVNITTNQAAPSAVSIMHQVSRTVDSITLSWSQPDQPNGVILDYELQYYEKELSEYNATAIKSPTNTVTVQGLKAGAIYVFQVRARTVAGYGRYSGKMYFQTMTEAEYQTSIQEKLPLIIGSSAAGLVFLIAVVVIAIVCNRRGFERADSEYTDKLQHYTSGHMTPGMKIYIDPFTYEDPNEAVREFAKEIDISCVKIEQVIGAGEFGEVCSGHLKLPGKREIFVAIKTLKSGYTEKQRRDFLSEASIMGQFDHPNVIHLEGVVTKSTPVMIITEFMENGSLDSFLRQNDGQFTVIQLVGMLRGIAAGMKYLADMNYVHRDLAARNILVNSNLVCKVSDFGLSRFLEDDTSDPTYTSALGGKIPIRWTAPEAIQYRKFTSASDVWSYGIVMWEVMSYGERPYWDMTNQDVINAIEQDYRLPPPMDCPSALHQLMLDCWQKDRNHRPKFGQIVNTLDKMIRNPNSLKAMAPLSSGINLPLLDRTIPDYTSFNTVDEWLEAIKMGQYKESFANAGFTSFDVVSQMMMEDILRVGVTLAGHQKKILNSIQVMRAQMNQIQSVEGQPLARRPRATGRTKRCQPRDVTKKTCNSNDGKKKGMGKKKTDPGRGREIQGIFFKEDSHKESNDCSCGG
The experiment in a line: Inhibition of EPHB2 (unknown origin) assessed as residual activity incubated for 5 mins in presence of [gamma-33ATP] by scintillation counting based radiometry assay.

Experiment [4] deals with Ephrin type-A receptor 4 (Homo sapiens) (UniProt P54764). The experiment in a line: Inhibition of EPHA4 (unknown origin) assessed as residual activity at 10 uM incubated for 5 mins in presence of [gamma-33ATP] by scintillation counting based radiometry assay relative to control.
Ephrin type-A receptor 4 (Homo sapiens), sequence (P54764 whole entry, looked up): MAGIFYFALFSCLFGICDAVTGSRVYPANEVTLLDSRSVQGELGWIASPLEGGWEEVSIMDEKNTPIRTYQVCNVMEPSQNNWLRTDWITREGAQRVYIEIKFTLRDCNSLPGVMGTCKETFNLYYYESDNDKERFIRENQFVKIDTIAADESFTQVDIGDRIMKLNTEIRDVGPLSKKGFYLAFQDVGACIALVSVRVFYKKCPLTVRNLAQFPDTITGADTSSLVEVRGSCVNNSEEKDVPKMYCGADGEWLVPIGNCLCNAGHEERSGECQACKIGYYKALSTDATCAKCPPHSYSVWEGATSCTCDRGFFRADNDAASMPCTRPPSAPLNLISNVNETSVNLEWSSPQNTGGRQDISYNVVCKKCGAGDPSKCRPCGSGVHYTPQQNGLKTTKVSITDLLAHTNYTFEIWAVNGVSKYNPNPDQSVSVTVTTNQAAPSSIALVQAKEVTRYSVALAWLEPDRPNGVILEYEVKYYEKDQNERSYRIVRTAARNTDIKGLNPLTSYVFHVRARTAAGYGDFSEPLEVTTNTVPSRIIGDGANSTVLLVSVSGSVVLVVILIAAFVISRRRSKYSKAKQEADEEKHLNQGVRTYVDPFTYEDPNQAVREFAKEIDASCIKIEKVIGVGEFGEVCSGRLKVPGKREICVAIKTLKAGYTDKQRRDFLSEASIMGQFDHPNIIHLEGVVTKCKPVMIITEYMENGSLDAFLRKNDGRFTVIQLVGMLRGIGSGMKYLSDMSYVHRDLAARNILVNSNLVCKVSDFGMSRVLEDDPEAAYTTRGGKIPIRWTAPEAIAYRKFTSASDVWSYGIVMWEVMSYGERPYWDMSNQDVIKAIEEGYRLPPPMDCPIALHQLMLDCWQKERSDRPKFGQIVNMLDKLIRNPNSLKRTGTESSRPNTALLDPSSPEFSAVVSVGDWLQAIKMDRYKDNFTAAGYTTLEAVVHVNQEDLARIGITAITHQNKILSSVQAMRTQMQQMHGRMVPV

The term IC50 denotes the midpoint of a concentration-inhibition curve. `Cc1ccc(C(=O)Nc2ccc(CN3Cc4cn[nH]c4C3)c(Cl)c2)cc1C#Cc1cnc2cccnn12`: the Activity in experiment [1] came out at 14%; in experiment [2] it was 14%; in experiment [4] it was 2%. Further, the IC50 in experiment [3] was determined as 70.8 nM.

`Cc1cn(-c2cc(NC(=O)c3ccc(C)c(Nc4nccc(-c5cccnc5)n4)c3)cc(C(F)(F)F)c2)cn1` [NILOTINIB]: the results for the Activity in experiment [1] and in experiment [2] were 4% and 107%, respectively.
